Test results from US20260285866A1, “MODULATORS OF TRPML, THEIR COMPOSITIONS AND METHODS OF USE” (Caraway Therapeutics, Inc., priority 2024, published 2026).

Assays:
Type in all cases: cell-based
[1] = molecular target: Human TRPML1 (Homo sapiens, UniProt Q9GZU1, L15A/L16A/L577A/L578A); assay: Fluorescent TRPML1 assay (Fluo4-AM, HEK-293 Trex cells expressing hTRPML1); conditions: fluorescent calcium assay, doxycycline-induced hTRPML1
Experimental: Example 27. Fluorescent TRPML Assays
(§1) HEK-293 Trex cells were stably transfected with a construct consisting of the human coding sequence for TRPML1 cloned into the tet-inducible plasmid pCDNA5 T/O. Mutations were introduced into the TRPML1 sequence to facilitate expression on the cell surface (Silvia Vergarajauregui, Rosa Puertollano Traffic. 2006 March; 7(3): 337-353). Briefly, the cells are cultured in 150 mm round tissue culture dishes containing 20 mL of media. The day before the assay the cells are rinsed with DPBS-Ca-Mg and then treated briefly with Trypsin-EDTA. The Trypsin-EDTA is diluted with growth media, and cells are counted. 38×10^6 cells are re-plated into 150 mm round tissue culture dishes in media containing 0.5 μg/mL doxycycline to induce expression of hTRPML1.
(§2) The day of the experiment cells are lifted from the plates as above and collected by centrifugation. The cells are then suspended in dye loading buffer consisting of Ringer's solution supplemented with 0.1% Pluronic Acid and 1 micromolar Fluo4-AM dye. Cells are loaded for ~60 minutes in the dark with occasional mixing. The cells are collected by centrifugation, the loading media aspirated, and the cells resuspended in 25 mL Ringer's solution and incubated ~60 minutes in the dark. The cells are again collected by centrifugation, rinsed in Ringer's Solution and resuspended to 0.2×10^6 cells/mL in modified Ringer's solution containing 10 mM calcium.
(§3) Compounds are dissolved to a concentration of 10 millimolar with DMSO. Compound plates are created by dispensing compounds into 384 well black wall clear bottom plates (Greiner 781091). Positive and negative controls are included on each plate. Typically, different amounts of each compound are tested ranging from 100 nanoMoles (20 micromolar final concentration) decreasing in half-log steps to 31 picoMoles (6 nanomolar final concentration). Each concentration is typically tested in triplicate.
(§4) 50 microliters of dye-loaded cells are dispensed into each well of the compound assay plate created above. The fluorescence in each well is then determined with an excitation wavelength of 480 nm and an emission wavelength of 540 nm using either a Molecular Devices SpectraMax multimode plate reader or a Hamamatsu FDSS/uCell plate imager.
(§5) The resulting fluorescence for each well is exported as an ascii file and loaded into our LIMS for analysis. The percent activity of each compound at each concentration is determined by comparison to the positive and negative control wells included in each plate.
(§6) EC50 values were calculated using a non-linear regression of Prism. In the table, “A” indicates an EC50 of less than 100 nM, “B” indicates an EC50 range from 100 nM to 500 nM: “C” indicates an EC50 range from 500 nM to 2 μM; and “D” indicates an EC50 greater than 2 μM.

[2] = molecular target: T1, Human TRPML2 (Homo sapiens, UniProt Q8IZK6); assay: Fluorescent TRPML2 assay (as for TRPML1); conditions: fluorescent calcium assay as for TRPML1, TRPML2 subtype
T1 construct: expressed in transfected cells
T1 sequence (Q8IZK6 1-566): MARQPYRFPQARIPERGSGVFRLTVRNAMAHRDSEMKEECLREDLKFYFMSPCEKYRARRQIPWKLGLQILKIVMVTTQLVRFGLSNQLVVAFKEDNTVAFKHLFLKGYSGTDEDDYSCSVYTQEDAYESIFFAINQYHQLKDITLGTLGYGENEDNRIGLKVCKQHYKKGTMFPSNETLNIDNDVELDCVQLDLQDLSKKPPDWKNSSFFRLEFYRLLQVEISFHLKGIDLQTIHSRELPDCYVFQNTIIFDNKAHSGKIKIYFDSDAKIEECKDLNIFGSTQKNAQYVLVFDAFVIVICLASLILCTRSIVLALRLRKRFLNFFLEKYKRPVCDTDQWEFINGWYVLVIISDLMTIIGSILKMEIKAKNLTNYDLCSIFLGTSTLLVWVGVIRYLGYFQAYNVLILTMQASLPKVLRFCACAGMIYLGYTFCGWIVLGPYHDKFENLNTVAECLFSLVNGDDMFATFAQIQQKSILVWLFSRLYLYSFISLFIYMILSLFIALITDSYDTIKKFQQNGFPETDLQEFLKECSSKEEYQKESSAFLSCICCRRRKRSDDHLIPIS
Experimental: as §1, §2, §3, §4, §5
(§7) Assays for TRPML2 and TRPML3 were performed as above for TRPML1, by substituting the appropriate TRPML2 or TRPML3 subtype for the TRPML1.
as §6

[3] = molecular target: T2, Human TRPML3 (Homo sapiens, UniProt Q8TDD5); assay: Fluorescent TRPML3 assay (as for TRPML1); conditions: fluorescent calcium assay as for TRPML1, TRPML3 subtype
T2 construct: expressed in transfected cells
T2 sequence (Q8TDD5 1-553): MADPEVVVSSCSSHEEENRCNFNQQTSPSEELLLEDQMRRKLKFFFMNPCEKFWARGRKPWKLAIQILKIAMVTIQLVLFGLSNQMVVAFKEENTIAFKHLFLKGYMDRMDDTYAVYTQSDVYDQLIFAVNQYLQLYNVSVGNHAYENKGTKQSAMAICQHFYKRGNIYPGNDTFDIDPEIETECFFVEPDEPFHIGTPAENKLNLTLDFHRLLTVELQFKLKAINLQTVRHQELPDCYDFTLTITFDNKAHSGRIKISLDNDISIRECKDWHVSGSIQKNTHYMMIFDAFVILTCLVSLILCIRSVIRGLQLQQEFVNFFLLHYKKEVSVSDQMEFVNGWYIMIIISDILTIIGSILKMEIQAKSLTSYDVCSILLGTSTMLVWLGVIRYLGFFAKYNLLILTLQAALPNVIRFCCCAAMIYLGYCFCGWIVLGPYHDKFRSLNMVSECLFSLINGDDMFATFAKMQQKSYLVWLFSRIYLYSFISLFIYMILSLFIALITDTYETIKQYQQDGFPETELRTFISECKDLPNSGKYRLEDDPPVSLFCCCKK
Experimental: as §1, §2, §3, §4, §5, §7, §6

Chain of Human TRPML1 (Q9GZU1 whole entry L15A/L16A/L577A/L578A): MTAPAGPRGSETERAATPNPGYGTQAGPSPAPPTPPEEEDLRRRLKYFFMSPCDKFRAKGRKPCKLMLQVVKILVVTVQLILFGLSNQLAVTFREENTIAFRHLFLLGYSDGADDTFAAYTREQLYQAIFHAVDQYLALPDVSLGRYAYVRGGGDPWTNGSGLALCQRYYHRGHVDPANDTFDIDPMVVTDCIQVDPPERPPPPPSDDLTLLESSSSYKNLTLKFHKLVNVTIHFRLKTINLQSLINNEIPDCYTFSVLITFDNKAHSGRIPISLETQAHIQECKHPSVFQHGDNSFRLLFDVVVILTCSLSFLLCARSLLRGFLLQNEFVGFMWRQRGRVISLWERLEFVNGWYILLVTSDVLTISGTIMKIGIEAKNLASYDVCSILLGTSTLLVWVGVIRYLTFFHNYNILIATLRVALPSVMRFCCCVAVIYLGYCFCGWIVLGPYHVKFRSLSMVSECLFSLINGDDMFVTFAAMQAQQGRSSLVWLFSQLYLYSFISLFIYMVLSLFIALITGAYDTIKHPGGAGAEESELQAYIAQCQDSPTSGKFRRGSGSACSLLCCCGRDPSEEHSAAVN

Structure (SMILES) | EC50 [1] [nM] | EC50 [2] [nM] | EC50 [3] [nM]
C[C@@H]1CN(c2ncnc3c2c(-c2cncnc2)cn3-c2cc(C#N)ccn2)[C@@H](C)CN1C(=O)C(C)(C)O [Compound 116, 2-(4-((2S,5R)-4-(2-hydroxy-2-methylpropanoyl)-2,5-dimethylpiperazin-1-yl)-5-(pyrimidin-5-yl)-7H-pyrrolo[2,3-d]pyrimidin-7-yl)isonicotinonitrile] | > 2000 | – | > 2000
C[C@@H]1CN(c2ncnc3c2c(-n2ccnc2)cn3-c2cc(C#N)ccn2)[C@@H](C)CN1C(=O)C(C)(C)O [Compound 132, 2-(4-((2S,5R)-4-(2-hydroxy-2-methylpropanoyl)-2,5-dimethylpiperazin-1-yl)-5-(1H-imidazol-1-yl)-7H-pyrrolo[2,3-d]pyrimidin-7-yl)isonicotinonitrile] | > 2000 | – | > 2000
C[C@@H]1CN(c2ncnc3c2c(-c2ccncc2)cn3-c2cccc(Cl)c2)[C@@H](C)CN1C(=O)C(C)(C)O [Compound 137, 1-((2R,5S)-4-(7-(3-chlorophenyl)-5-(pyridin-4-yl)-7H-pyrrolo[2,3-d]pyrimidin-4-yl)-2,5-dimethylpiperazin-1-yl)-2-hydroxy-2-methylpropan-1-one] | 500 to 2000 | – | > 2000
C[C@@H]1CN(c2ncnc3c2c(-c2cocn2)cn3-c2cc(C#N)ccn2)[C@@H](C)CN1C(=O)C(C)(C)O [Compound 126, 2-(4-((2S,5R)-4-(2-hydroxy-2-methylpropanoyl)-2,5-dimethylpiperazin-1-yl)-5-(oxazol-4-yl)-7H-pyrrolo[2,3-d]pyrimidin-7-yl)isonicotinonitrile] | 500 to 2000 | – | > 2000
C[C@@H]1CN(c2ncnc3c2c(-c2ccncc2)cn3-c2cc(C#N)ccn2)[C@@H](C)CN1C(=O)C1(O)CC1 [Compound 149, 2-(4-((2S,5R)-4-(1-hydroxycyclopropane-1-carbonyl)-2,5-dimethylpiperazin-1-yl)-5-(pyridin-4-yl)-7H-pyrrolo[2,3-d]pyrimidin-7-yl)isonicotinonitrile] | 500 to 2000 | – | > 2000
C[C@@H]1CN(c2ncnc3c2c(-c2ccccc2)cn3-c2cc(C#N)ccn2)[C@@H](C)CN1C(=O)C1(O)CC1 [Compound 156, 2-(4-((2S,5R)-4-(1-hydroxycyclopropane-1-carbonyl)-2,5-dimethylpiperazin-1-yl)-5-phenyl-7H-pyrrolo[2,3-d]pyrimidin-7-yl)isonicotinonitrile] | 500 to 2000 | – | > 2000
C[C@@H]1CN(c2nccc3c2c(-c2ccncc2)cn3-c2cc(F)ccn2)[C@@H](C)CN1C(=O)C(C)(C)O [Compound 141, 1-((2R,5S)-4-(1-(4-fluoropyridin-2-yl)-3-(pyridin-4-yl)-1H-pyrrolo[3,2-c]pyridin-4-yl)-2,5-dimethylpiperazin-1-yl)-2-hydroxy-2-methylpropan-1-one] | > 2000 | – | > 2000

More lines, now with the values ahead:

EC50 [1] [nM] | EC50 [2] [nM] | EC50 [3] [nM] | Structure (SMILES)
500 to 2000 | > 2000 | > 2000 | C[C@@H]1CN(c2ncnc3c2c(-c2ccncc2)cn3-c2cccc(C#N)c2)[C@@H](C)CN1C(=O)C(C)(C)O [Compound 135, 3-(4-((2S,5R)-4-(2-hydroxy-2-methylpropanoyl)-2,5-dimethylpiperazin-1-yl)-5-(pyridin-4-yl)-7H-pyrrolo[2,3-d]pyrimidin-7-yl)benzonitrile]
500 to 2000 | – | > 2000 | C[C@@H]1CN(c2ncnc3c2c(-c2ccccc2)cn3-c2cc(C#N)ccn2)[C@@H](C)CN1C(=O)C1(O)CN(C)C1 [Compound 130, 2-(4-((2S,5R)-4-(3-hydroxy-1-methylazetidine-3-carbonyl)-2,5-dimethylpiperazin-1-yl)-5-phenyl-7H-pyrrolo[2,3-d]pyrimidin-7-yl)isonicotinonitrile]
500 to 2000 | – | 500 to 2000 | CC(C)[C@H]1CN(C(=O)C(C)(C)O)CCN1c1ncnc2c1c(-c1ccccc1)cn2-c1cc(C#N)ccn1 [Compound 112, (S)-2-(4-(4-(2-hydroxy-2-methylpropanoyl)-2-isopropylpiperazin-1-yl)-5-phenyl-7H-pyrrolo[2,3-d]pyrimidin-7-yl)isonicotinonitrile]
100 to 500 | – | 500 to 2000 | CC[C@H]1CN(C(=O)C(C)(C)O)CCN1c1ncnc2c1c(-c1ccccc1)cn2-c1cc(C#N)ccn1 [Compound 111, (S)-2-(4-(2-ethyl-4-(2-hydroxy-2-methylpropanoyl)piperazin-1-yl)-5-phenyl-7H-pyrrolo[2,3-d]pyrimidin-7-yl)isonicotinonitrile]
500 to 2000 | – | 500 to 2000 | C[C@@H]1CN(c2ncnc3c2c(-c2ccns2)cn3-c2cc(C#N)ccn2)[C@@H](C)CN1C(=O)C(C)(C)O [Compound 153, 2-(4-((2S,5R)-4-(2-hydroxy-2-methylpropanoyl)-2,5-dimethylpiperazin-1-yl)-5-(isothiazol-5-yl)-7H-pyrrolo[2,3-d]pyrimidin-7-yl)isonicotinonitrile]
500 to 2000 | – | > 2000 | C[C@@H]1CN(c2ncnc3c2c(-c2ncco2)cn3-c2cc(C#N)ccn2)[C@@H](C)CN1C(=O)C(C)(C)O [Compound 134, 2-(4-((2S,5R)-4-(2-hydroxy-2-methylpropanoyl)-2,5-dimethylpiperazin-1-yl)-5-(oxazol-2-yl)-7H-pyrrolo[2,3-d]pyrimidin-7-yl)isonicotinonitrile]
500 to 2000 | – | > 2000 | C[C@@H]1CN(c2ncnc3c2c(-c2cccnc2)cn3-c2cc(C#N)ccn2)[C@@H](C)CN1C(=O)C(C)(C)O [Compound 115, 2-(4-((2S,5R)-4-(2-hydroxy-2-methylpropanoyl)-2,5-dimethylpiperazin-1-yl)-5-(pyridin-3-yl)-7H-pyrrolo[2,3-d]pyrimidin-7-yl)isonicotinonitrile]
100 to 500 | – | > 2000 | C[C@@H]1CN(c2ncnc3c2c(-c2cnco2)cn3-c2cc(C#N)ccn2)[C@@H](C)CN1C(=O)C(C)(C)O [Compound 127, 2-(4-((2S,5R)-4-(2-hydroxy-2-methylpropanoyl)-2,5-dimethylpiperazin-1-yl)-5-(oxazol-5-yl)-7H-pyrrolo[2,3-d]pyrimidin-7-yl)isonicotinonitrile]
500 to 2000 | – | > 2000 | C[C@@H]1CN(c2nccc3c2c(-c2ccncc2)cn3-c2cc(C#N)ccn2)[C@@H](C)CN1C(=O)C(C)(C)O [Compound 140, 2-(4-((2S,5R)-4-(2-hydroxy-2-methylpropanoyl)-2,5-dimethylpiperazin-1-yl)-3-(pyridin-4-yl)-1H-pyrrolo[3,2-c]pyridin-1-yl)isonicotinonitrile]
